We go through 70 compounds from the supplement of paper PMC8837787.

The test system of this test is Saccharomyces cerevisiae ABC16-Green Monster. The settings on record: 18 h; 30 °C; YPD. As to the method: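 Growth inhibition of the drug-sensitive S. cerevisiae ABC16-Green Monster strain (16 ABC transporters deleted) in YPD at 30 °C for 18 h. […] dilution series […] in biological replicates; IC50 from OD600 (18 h minus 0 h) fitted by variable-slope nonlinear regression in GraphPad Prism. Library compounds were first screened at 150 µM, and only those with at least 70% inhibition went to dose-response; the rest are marked inactive.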

Molecules are shown by their SMILES.

`CC(=O)c1ccc(-c2ccc(C(=O)N3CCCc4ccccc43)o2)cc1` gave an IC50 growth inhibition of 52.4 µM.
The same measure for `CC[C@@H]([C@H](C)O)n1ncn(-c2ccc(N3CCN(c4ccc(OC[C@@H]5CO[C@@](Cn6cncn6)(c6ccc(F)cc6F)C5)cc4)CC3)cc2)c1=O`: 50 µM; for `c1ccc(-c2nc(NC3CCCCC3)cc(C3CC3)n2)nc1`: 44.5 µM; for `COc1cc(OC)cc(C(=O)NCC2Cc3cc(Cl)cc(-c4ccncc4)c3O2)c1` (stereo not given): 14.4 µM.
Under `Cc1nc([P+](c2ccccc2)(c2ccccc2)c2ccccc2)c(SCc2ccccc2)o1` [GNF-Pf-3891] stands 5.85 µM; under `CCC(C)n1ncn(-c2ccc(N3CCN(c4ccc(OCC5COC(Cn6cncn6)(c6ccc(Cl)cc6Cl)O5)cc4)CC3)cc2)c1=O` (stereo not given) [Itraconazole], 7.53 µM.
The same measure for `CNC(=O)c1ccccc1Nc1nc(Nc2ccc3c(c2OC)CCC[C@H](N2CCN(CCO)CC2)C3)ncc1Cl`: 37.7 µM; for `COC1CC2CCC(C)C(O)(O2)C(=O)C(=O)N2CCCCC2C(=O)OC(C(C)CC2CCC(OCCO)C(OC)C2)CC(=O)C(C)C=C(C)C(O)C(OC)C(=O)C(C)CC(C)C=CC=CC=C1C` (stereo not given) [Everolimus]: 0.0415 µM.
As for `O=C1CCC(N2C(=O)c3ccccc3C2=O)C(=O)N1` (stereo not given) [Thalidomide], the IC50 growth inhibition was > 75 µM.
The same measure for `Cc1cc(NS(=O)(=O)c2ccc(Nc3nc(-c4ccc(Cl)c(Cl)c4)cs3)cc2)no1` [CBR410]: 4.87 µM.
For the compound `C=CCc1ccc(O)c(-c2ccc(O)c(CC=C)c2)c1` [Honokiol], the IC50 growth inhibition was 13.2 µM.
For `Cc1cc(NC(C)C)n2ncc(-c3ccc(F)cc3)c2n1`, the IC50 growth inhibition was 90.7 µM.
Under `Cc1ccc(Cc2c(C)nn(-c3nc4ccccc4[nH]3)c2O)cc1` [CBR868] stands 5.39 µM; under `Cc1nn(C(C)(C)C)c(C)c1/C=N/OC(=O)Nc1ccc(Cl)cc1`, 39.1 µM.
The compound `C[C@]1(O)C[C@@H](c2nc(-c3ccc4ccc(-c5ccccc5)nc4c3)c3c(N)nccn32)C1` [Linsitinib] displayed an IC50 growth inhibition of 16 µM.
In the case of `COc1ccc2nc(S(=O)Cc3ncc(C)c(OC)c3C)[nH]c2c1` (stereo not given) [Omeprazole], the IC50 growth inhibition is > 75 µM.
`Cc1cccc(-n2ncc3c(=O)[nH]c(-n4nc(C)cc4NC(=O)c4cc5ccccc5o4)nc32)c1` had an IC50 growth inhibition of 7.06 µM.
The same measure for `Cl.c1ccc(C2CCCC2NC2=NCCCCCCCCCCC2)cc1` (stereo not given) [MDL-12]: 54.6 µM; for `N=C(N)c1ccc(OCCCCCOc2ccc(C(=N)N)cc2)cc1`: 83.8 µM.
As for `COCCNCC(O)Cn1c2ccc(Cl)cc2c2cc(Cl)ccc21` (stereo not given), the IC50 growth inhibition came to 11 µM.
Under `CCCC(=O)NC(c1ccc(Cl)cc1)c1ccc2cccnc2c1O` (stereo not given) [GNF-Pf-3257] stands 55.9 µM.
Consider `O=C(O)[C@]1(Cc2cccc(Nc3nccs3)n2)CC[C@@H](Oc2cccc(Cl)c2F)CC1` [MK-5108], for which the IC50 growth inhibition is > 75 µM.
Under `CCC1(O)C(=O)OCc2c1cc1n(c2=O)Cc2cc3c(CN(C)C)c(O)ccc3nc2-1` (stereo not given) [Topotecan] stands > 75 µM.
Regarding `FC(F)c1nc2ccccc2n1-c1nc(N2CCOCC2)nc(N2CCOCC2)n1` [ZSTK-474], the IC50 growth inhibition came out at 52 µM.
`COc1cc(C=Cc2ccc(O)cc2)cc(OC)c1` [Pterostilbene] gave an IC50 growth inhibition of 29.4 µM.
Under `COC1C=COC2(C)Oc3c(C)c(O)c4c(c3C2=O)C(=O)C(=CNN2CCN(C)CC2)C(=C4O)NC(=O)C(C)=CC=CC(C)C(O)C(C)C(O)C(C)C(OC(C)=O)C1C` (stereo not given) [Rifampicin] stands > 75 µM.
Under `CCCCCN(C)CCC(O)(P(=O)([O-])O)P(=O)(O)O.[Na+]` [Ibandronate] stands > 75 µM; under `CCOC(=O)Nc1ccc(NCc2ccc(F)cc2)cc1N` [Retigabine], > 75 µM.
Compound `Nc1ccc2ncnc(Nc3ccc(OCc4cccc(F)c4)c(Cl)c3)c2c1` displayed an IC50 growth inhibition of 18.7 µM.
The same measure for `Nc1ccc(C(=O)Nc2ccc(-c3nc4ccccc4o3)cc2)cc1`: 19 µM.
On to `CC(C(=O)O)c1ccc2c(c1)[nH]c1ccc(Cl)cc12` (stereo not given) [Carprofen], for which the IC50 growth inhibition was > 75 µM.
Under `CCCCc1ccc(C(=O)Nc2nccc3ccccc23)nc1` stands 54.7 µM; under `C[C@H](c1ccc2c(c1)CCCC2)N(C)c1ncc2c(N)nc(N)nc2n1`, 30.5 µM; under `CC(=O)NCC1CN(c2ccc(N3CCSCC3)c(F)c2)C(=O)O1` (stereo not given) [Sutezolid], > 75 µM.
The compound `COC1CC2CCC(C)C(O)(O2)C(=O)C(=O)N2CCCCC2C(=O)OC(C(C)CC2CCC(O)C(OC)C2)CC(=O)C(C)C=C(C)C(O)C(OC)C(=O)C(C)CC(C)C=CC=CC=C1C` (stereo not given) [Rapamycin] came in with an IC50 growth inhibition of 0.727 µM.
Under `CCC1(O)C(=O)OCc2c1cc1n(c2=O)Cc2cc3ccccc3nc2-1` (stereo not given) [Camptothecin] stands 1.61 µM.
Turning to `Brc1cncc(-c2cc(NCCCn3ccnc3)nc(-c3ccccc3)n2)c1`, the IC50 growth inhibition was 23.9 µM.
Turning to `O=P(O)(O)C(O)(Cn1ccnc1)P(=O)(O)O` [Zoledronate], the IC50 growth inhibition is > 75 µM.
For `O=C(c1cccs1)N1CCN(c2ccc([N+](=O)[O-])c(NC3CC3)c2)CC1` [GNF-Pf-3455], the IC50 growth inhibition is > 150 µM.
Regarding `CCCCN(CCCC)CC(O)c1cc(Cl)cc2c1-c1ccc(Cl)cc1C2=Cc1ccc(Cl)cc1` (stereo not given) [Lumefantrine], the IC50 growth inhibition is > 75 µM.
The same measure for `Cc1nc2ncnn2c(N2CCc3ccccc3C2)c1Cl`: 84.8 µM; for `CS(=O)(=O)Nc1nc(-c2ccccn2)nc2scc(-c3ccccc3)c12`: 13.8 µM.
The same measure for `O=C(C(Cc1c[nH]c2ccccc12)NS(=O)(=O)c1ccc(Cl)cc1)N1CCCCC1` (stereo not given): 42.4 µM.
Under `CC1(C)OB(O)c2cc(NC(=O)c3ccc(-n4cccn4)cc3Cl)ccc21` [AN7973] stands 0.355 µM; under `CC(C=CC(=O)NO)=CC(C)C(=O)c1ccc(N(C)C)cc1` (stereo not given) [Trichostatin A], 50.6 µM; under `C[C@H]1CC[C@H](n2c3cnccc3c3cnc(Nc4ccc5c(n4)CCN(C(=O)CO)C5)nc32)CC1` [AMG 925], > 75 µM.
Turning to `CCC(C)(C)c1ccc(OCCOCC[n+]2ccccc2)c(C(C)(C)CC)c1.[Cl-]` [GNF-Pf-1618], the IC50 growth inhibition came out at 2.19 µM.
The same measure for `Cc1cc(=O)[nH]c(-n2nc(C3CC3)cc2NC(=O)C2(c3ccc(Cl)cc3)CCCC2)n1` [CBR668]: 1.93 µM.
The same measure for `CCCCCc1nnc(NC(=O)c2nccnc2N)s1`: 74.2 µM; for `CN1CCN(S(=O)(=O)c2ccc(-c3ccc4c(Nc5ncc(Cl)cn5)ccnc4c3)cc2)CC1`: 43.4 µM; for `CC(=O)OC1c2nc(cs2)C(=O)OC(CCCC(C)(Cl)Cl)C(C)C(=O)OC(C(C)(C)O)c2nc(cs2)C(=O)OC1(C)C` (stereo not given) [Hectochlorin]: 0.25 µM.
On to `CCC1C=CC=CCC(C)C(O)C(C)(O)C(=O)C(C)C(O)C(C)C(=O)C(C)C(O)C(C)C=CC(=O)OC2C(C)C(CC1)OC1(CCC(C)C(CC(C)O)O1)C2C` (stereo not given) [Oligomycin], for which the IC50 growth inhibition is > 75 µM.
Compound `CC1(C)C2CCC(C2)C1(C)NC(=S)NN=Cc1ccccn1` (stereo not given) [GNF-Pf-5458] came in with an IC50 growth inhibition of 3.1 µM.
Under `Cc1nc(-c2ccccn2)nc(N(C)CCc2ccccc2)c1Cl` stands 43.3 µM.
The same measure for `CC(C)(C)n1nc(Cc2cccc3ccccc23)c2c(N)ncnc21`: 27.6 µM; for `CN(C)CCNc1nc2sc3c(c2c(=O)n1Cc1ccco1)CCCCC3`: 32.5 µM; for `CCCCc1oc2ccccc2c1C(=O)c1cc(I)c(OCCN(CC)CC)c(I)c1` [Amiodarone]: 5.72 µM.
The compound `COc1ccc(C2c3ccc4ccccc4c3Oc3ncn(CCCN(C)C)c(=N)c32)cc1` (stereo not given) had an IC50 growth inhibition of 28.9 µM.
The same measure for `O=C(COc1cccc(F)c1)Nc1nc(-c2ccccn2)cs1`: 35.1 µM; for `CNCCC(Oc1ccc(C(F)(F)F)cc1)c1ccccc1` (stereo not given): 48.3 µM.
The same measure for `Cc1cc(C)n(-c2ccc3c(Cl)cc(Cl)c(O)c3n2)n1`: 71.3 µM.
The same measure for `COc1ccc2nc3cc(Cl)ccc3c(N(C)CCc3ccc(OC)c(OC)c3)c2c1`: 27.2 µM; for `CC1CCC2C(C)C(O)OC3OC4(C)CCC1C32OO4` (stereo not given) [Dihydroartemisinin]: > 75 µM.
For `CN1C=C/C(=C/c2ccc3ccccc3[n+]2C)c2ccccc21`, the IC50 growth inhibition is 51.4 µM.
Under `CCCCCCCCCCCCCCCCOP(=O)([O-])OCC[N+](C)(C)C` [Miltefosine] stands 9.3 µM; under `COC(=O)C1=C(C)NC(C)=C(C(=O)OCC(C)C)C1c1ccccc1[N+](=O)[O-]` (stereo not given) [Nisoldipine], 41 µM.
Consider `Cc1nc([P+](c2ccccc2)(c2ccccc2)c2ccccc2)c(N2CCCCC2)o1` [GNF-Pf-445], for which the IC50 growth inhibition was determined as 9.44 µM.
The same measure for `OC(c1cc(C(F)(F)F)nc2c(C(F)(F)F)cccc12)C1CCCCN1` (stereo not given) [Mefloquine]: 29.9 µM.
Under `O=C(CC1NCCCC1O)Cn1cnc2ccccc2c1=O` (stereo not given) [Febrifugine] stands > 75 µM.
Under `COc1ccc(Nc2nc(NCc3ccccc3)c3ccccc3n2)cc1` stands 7.72 µM.
